In US8357671B2, “High affinity Siglec ligands” (priority 2005, dated 2013):
“And” between values parts separate entries of the source, which are not always exact repeats. Identical values can stand only once.

Experiments:
[1] = target: T1, human CD22 (Homo sapiens, UniProt P20273); assay: ELISA inhibition assay: CD22-Fc chimera binding to immobilized NeuAc-LN; details: for IC50: inhibition of CD22-Fc binding to immobilized NeuAcα2,6LacNAc, read-out: IC 50 value hCd22; for rIP hCd22 (relative inhibitory potency): relative to NeuAc-LN = 1
T1 construct: made in house
Method: (§1) FIG. 1A-B illustrate that sialosides with derivation at position 9 that includes a neutral core and a hydrophobic moiety are potent inhibitors for CD22. Similar inhibitors can be made by derivation at position 5. […] FIG. 1B graphically illustrates competitive inhibition of selected sialoside inhibitors. Inhibitors were added with soluble CD22-Fc chimeras to block the chimera binding to immobilized NeuAcα2-6Galβ1-4GlcNAc (NeuAc-LN, human CD22, hCD22) or NeuGcα2,6Galβ1-4GlcNAc (NeuGc-LN, mouse CD22, mCD22). Data are the average +/−S.D. of triplicate determinations and are representative of two individual assays.
(§2) ELISA inhibition assays: For inhibition assays, high binding 96 well microtiter plates (Corning Costar) were coated with neutravidin by incubation with 50 ul of 1 mg/ml Neutravidin (Pierce Biotechnology) in 50 mM Na bicarbonate pH 9.5 overnight at 4° C. The wells were then washed with PBS and blocked with PBS containing 5 mg/ml BSA for 1 hr at 37° C. Fifty microliters of a selected biotinylated sialoside (0.33 uM) was added to each well, and allowed to bind for 1 hr at room temperature. The sialoside was then allowed to bind for 1 hr at 37° C. and the wells were washed.
(§3) The CD22-Fc chimera employed was produced as described in Blixt et al. (J. Biol. Chem. 278: 31007-19 (2003)) and diluted to 0.1 mg/ml into HBSS (with 5 mg/ml BSA and 1 mM EDTA). An F(ab′)2 Fragment Goat anti-Human IgG (Jackson Immunoresearch) (0.066 mg/ml) was mixed and allowed to complex with Peroxidase conjugated F(AB′)2 Fragment Rabbit anti Goat F(ab′)2 specific (0.010 mg/ml) for 15 min. CD22-Fc (1.5 ml) was added to 1 ml of the pre-complexed solution and allowed to further associate with complexes in that solution for 15 min. The inhibitor of interest was diluted into HBSS. Twenty-five microliters of the inhibitor and 25 ul of the CD22Fc complex were added to each well and the plates were incubated for 30 min at 37° C. The plates were then washed 4 times with 200 ul of HBSS. Wells were developed with 50 ul of 1 mg/ml OPD (Sigma), 0.03% H2O2 in 50 mM phosphate/citrate, pH 5.0. The reaction was stopped with 50 ul of 2.5 M H2SO4 and the optical density at 450 nm (OD450) was measured.

[2] = target: T2, mouse CD22 (Mus musculus, UniProt P35329); assay: ELISA inhibition assay: CD22-Fc chimera binding to immobilized NeuGc-LN; details: for IC50: inhibition of CD22-Fc binding to immobilized NeuGcα2,6LacNAc, read-out: IC 50 value mCd22; for rIP mCd22 (relative inhibitory potency): relative to NeuGc-LN = 1
T2 construct: made in house
Method: as §1, §2, §3

[3] = target: T3, cell surface CD22 (hCD22) on Daudi cells (Homo sapiens, UniProt P20273); assay: Inhibition of NeuAc-LN-PAA probe binding to sialidase-treated Daudi cells; assay type: cell-based; details: inhibitor 10, 30, 200 uM
T3 construct: endogenous in cells; host or cells: Daudi cells (sialidase-treated)
T3 sequence (P20273 20-847): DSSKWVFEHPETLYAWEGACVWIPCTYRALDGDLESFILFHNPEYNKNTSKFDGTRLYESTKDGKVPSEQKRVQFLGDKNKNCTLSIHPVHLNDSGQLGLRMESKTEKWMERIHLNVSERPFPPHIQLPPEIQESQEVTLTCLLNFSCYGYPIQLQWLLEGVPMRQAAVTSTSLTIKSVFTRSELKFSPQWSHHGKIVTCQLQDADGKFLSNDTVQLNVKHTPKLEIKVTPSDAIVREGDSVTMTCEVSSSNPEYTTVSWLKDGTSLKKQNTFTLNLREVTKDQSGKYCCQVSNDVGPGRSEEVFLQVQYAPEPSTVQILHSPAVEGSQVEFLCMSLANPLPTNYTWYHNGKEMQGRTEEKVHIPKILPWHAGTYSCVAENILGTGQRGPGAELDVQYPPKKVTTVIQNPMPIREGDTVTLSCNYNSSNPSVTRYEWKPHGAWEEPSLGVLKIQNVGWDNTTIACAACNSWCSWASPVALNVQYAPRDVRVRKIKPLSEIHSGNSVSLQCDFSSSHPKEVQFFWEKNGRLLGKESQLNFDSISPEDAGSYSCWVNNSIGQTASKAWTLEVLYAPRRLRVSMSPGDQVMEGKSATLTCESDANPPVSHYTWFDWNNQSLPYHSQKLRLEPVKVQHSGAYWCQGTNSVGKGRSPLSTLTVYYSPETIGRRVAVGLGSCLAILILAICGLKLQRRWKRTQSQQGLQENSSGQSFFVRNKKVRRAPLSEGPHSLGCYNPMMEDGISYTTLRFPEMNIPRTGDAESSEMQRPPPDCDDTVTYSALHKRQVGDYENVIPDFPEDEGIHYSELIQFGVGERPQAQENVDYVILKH
Method: FIG. 2A-B illustrate inhibition of multivalent sialoside probe binding to cell surface CD22 by potent biphenyl (BP) derivatives. FIG. 2A provides the results for murine splenocytes. Murine splenocytes were mock-treated (grey shaded peak) or actually treated with A. ureafaciens sialidase to cleave sialic acid-containing glycans from cell surfaces and thereby ‘unmask’ surface CD22. The cells were then incubated with NeuGc-LN-PAA alone (rightmost Black line, where PAA refers to a polyacrylamide carrier) or in the presence of 5 uM (light line to the right of center), 200 uM (central grey line) or 2 mM (leftmost dark grey line) of the indicated inhibitor for 1.5 h on ice, then washed. Bound probe was detected with streptavidin-PE, and B cells stained with anti-B220. Data are for B220+ cells only. FIG. 2B provides results for Daudi Cells. […] Bound probe was detected with streptavidin-PE and measured by flow cytometry. […]
Inhibition of Probe-Binding to B cells by Sialic Acid Inhibitors. […] These “cis” glycan ligands can mask binding of sialic acid ligands provided in “trans.” After treatment with sialidase, inhibition of B cell binding by monovalent BPC-NeuAc-LN and BPA-NeuGc-LN was detected for multivalent polyacrylamide (PAA) sialoside probes derivatized with NeuAc-LN (hCD22) or NeuGc-LN (mCD22) (FIG. 2).

[4] = target: T4, CD22Fc chimeras (hCD22Fc) (Homo sapiens, UniProt P20273); assay: ELISA-type assay of IgM/NP-BPC/CD22 complex formation; assay type: binding
T4 construct: made in house; host or cells: COS cells
Method: FIG. 7A-7C illustrate a self-assembling B cell targeting complex as one aspect of the invention. […] CD22-Fc chimeras were immobilized onto protein A coated wells. After washing, the indicated amount of either NP, or NP-BPC was added along with the anti-NP IgM was added and allowed to bind for 30 min at room temperature. After washing, bound IgM was detected with HRP-conjugated anti-IgM and developed with OPD. Data are the average ±S.D. of triplicates, and are representative of 3 independent experiments.
ELISA-Type Assay. High Binding microtiter plates were coated with neutravidin (1 ug/50 ul/well in Na Bicarbonate pH 9.5) overnight at 4° C., then washed with 200 ul of HBSS/BSA. Culture supernatants containing hCD22Fc chimera were incubated in the wells for 2 h at room temperature. Wells were then washed and a mixture of IgM antibodies that recognize nitrophenyl groups (anti-NP antibodies) and 50 ul of varying concentrations of the BPC-Siaα2-6LN heterobifunctional ligand were added. The plates were allowed to bind for 30 min. […]
CD22Fc chimeras were immobilized onto microtiter plates and overlaid with mixtures of IgM anti-NP and NP or NP-BPC. Following washing, bound IgM complex was detected with HRP-conjugated anti-Ig antibodies. CD22-dependent binding of the complex was detected, with maximal IgM complex binding achieved when using less than 200 nM NP-BPC.

[5] = target: T5, CD22 on sialylated (native) BJAB cells (Homo sapiens, UniProt P20273); assay: Self-assembled IgM complex binding to sialylated BJAB cells; assay type: cell-based; details: high concentration of cis ligands
T5 construct: endogenous in cells; host or cells: BJAB cells (incl. K20 subclone)
T5 sequence (P20273 20-847): T3 sequence (P20273 20-847)

[6] = target: T6, CD22 on asialo K20 cells (BJAB subclone) (Homo sapiens, UniProt P20273); assay: Self-assembled IgM complex binding to asialo cells
T6 sequence (P20273 20-847): T3 sequence (P20273 20-847)
Method: Following washing, bound IgM was detected with FITC-labeled anti-Ig and read by flow cytometry. […] Free NP, the heterobifunctional ligand, and the IgM anti-NP were all added to BJAB cells and allowed to incubate on ice before washing. Bound IgM was detected as described for FIG. 5B. […] After binding of a self-assembled complex of NP-BPC and Alexa Fluor-labeled anti-NP IgM antibodies to BJAB cells on ice, the cells were washed and allowed to internalize the complex for the indicated period of time. After a brief acid wash to remove any surface IgM, internalized IgM was quantified by flow cytometry.
Cell Binding. BJAB cells, incubated with or without exogenous sialic acid (4 mM) for 2 days, were resuspended in HBSS/BSA at a density of 1×10^6 cells/ml and the varying amounts of IgM and the BPC-NP construct shown in FIG. 7 were added to the cells and allowed to bind for 1 hr on ice. Cells were then washed with 1 ml of HBSS/BSA and then incubated with FITC-labeled anti-IgM for 30 min on ice. After washing again, the cells were read by flow cytometry.
To further evaluate the ability for the IgM complex to bind to CD22 on B cells, cells deficient in cell-surface sialic acid were used.

[7] = system: Siglec 10; assay: PAA probe binding to Siglec 10; details: result in words
From the text: Building on the binding studies described above, polyacrylamide (PAA) probes containing the BPA-NeuGc-LN or BPC-NeuAc-LN sialosides were synthesized and tested for binding to CD22. […] Siglec 10 another B cell lectin, however, binds well to the NeuGc-LN glycan, but in contrast to CD22, only weakly to the high molecular weight BPA derivative.

[8] = system: BJAB cells; assay: Measurement of probe internalization; assay type: cell-based, human; details: caveolin inhibitor
Method: To generate the data shown in FIG. 5A, BJAB cells grown in the presence of sera and supplemented with NeuAc were incubated with the high molecular weight BPC-NeuAc-LN-PAA (light and heavy lines) or LN-PAA (Shaded) probes for 1.5 h on ice, followed by CyChrome labeled streptavidin for 45 min on ice. After washing, the cells were then incubated at 37° C. for the indicated period of time. Following this incubation, cells were washed with HBSS/BSA (shaded peak and heavy line) or RPMI pH 2.5 (light line). Bound or internalized probe was detected by flow cytometry. To generate the data shown in FIG. 5B, cells were washed with RPMI:Water (1/1) and then incubated for 1 hr in media with or without potassium. After pre-chilling on ice, cells were incubated in the corresponding media with the BPC-NeuAc-LN-PAA probe and then internalization was measured as above. Data are the average of two independent experiments.
Measurement of probe internalization. BJAB cells (2×10^6 cell/ml) were labeled with the PAA probe and streptavidin as above. Following staining, aliquots of 100 ul of the cell suspension were placed on ice or at 37° C. for selected periods of time. […]
Similarly, the ability for B cells to endocytose the PAA probes was determined. […] The remaining fluorescence as measured by flow cytometry as a measure of the amount of internalized probe.

T1 sequence (P20273 with tags, fused parts or gaps limits assumed): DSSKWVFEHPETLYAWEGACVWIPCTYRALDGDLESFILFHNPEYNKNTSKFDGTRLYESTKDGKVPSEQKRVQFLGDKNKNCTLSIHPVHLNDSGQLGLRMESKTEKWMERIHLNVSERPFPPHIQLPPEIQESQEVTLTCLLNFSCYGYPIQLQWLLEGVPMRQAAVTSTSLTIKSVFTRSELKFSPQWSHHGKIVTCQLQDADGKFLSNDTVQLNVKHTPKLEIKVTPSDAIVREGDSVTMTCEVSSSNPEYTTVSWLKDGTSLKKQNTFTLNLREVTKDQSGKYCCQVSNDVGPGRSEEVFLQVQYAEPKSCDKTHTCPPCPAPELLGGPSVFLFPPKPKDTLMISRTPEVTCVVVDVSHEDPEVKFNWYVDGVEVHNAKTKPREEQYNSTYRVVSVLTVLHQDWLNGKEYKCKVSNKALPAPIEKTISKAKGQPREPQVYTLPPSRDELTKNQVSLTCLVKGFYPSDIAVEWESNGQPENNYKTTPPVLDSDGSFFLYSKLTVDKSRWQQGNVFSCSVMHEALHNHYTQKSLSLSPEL
T2 sequence (P35329 with tags, fused parts or gaps limits assumed): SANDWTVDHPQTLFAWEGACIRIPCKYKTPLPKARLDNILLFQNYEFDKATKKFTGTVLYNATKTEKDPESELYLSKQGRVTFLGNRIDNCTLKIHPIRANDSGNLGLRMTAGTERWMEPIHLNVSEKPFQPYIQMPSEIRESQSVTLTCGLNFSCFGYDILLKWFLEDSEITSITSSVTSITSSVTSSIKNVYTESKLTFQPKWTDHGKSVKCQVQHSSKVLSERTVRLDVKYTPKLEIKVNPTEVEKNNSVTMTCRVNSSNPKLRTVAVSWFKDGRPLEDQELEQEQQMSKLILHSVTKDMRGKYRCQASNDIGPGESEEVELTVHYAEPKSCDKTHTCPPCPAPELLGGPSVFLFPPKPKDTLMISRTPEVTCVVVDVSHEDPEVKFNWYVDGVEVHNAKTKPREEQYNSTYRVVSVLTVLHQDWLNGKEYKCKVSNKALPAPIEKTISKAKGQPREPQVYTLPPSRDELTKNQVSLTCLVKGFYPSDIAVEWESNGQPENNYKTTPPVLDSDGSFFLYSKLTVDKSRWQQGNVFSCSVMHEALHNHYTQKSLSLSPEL
T4 sequence (P20273 with tags, fused parts or gaps limits assumed): as the sequence (P20273 with tags, fused parts or gaps limits assumed) above

Compound | IC50 [1] | rIP hCd22 (relative inhibitory potency) [1] | IC50 [2] [µM] | rIP mCd22 (relative inhibitory potency) [2] | inhibition of NeuAc-LN-PAA probe binding [3] | concentration for maximal IgM complex binding [4] | binding to CD22 on sialylated BJAB cells [5] | concentration at maximal binding of the complex [6] [µM] | inhibition of Siglec binding to immobilized sialoside ([1]; result in words) | binding to Siglec 10 [7] | effect on probe internalization [8]
9-biphenylcarbonyl (BPC)-Neu5Acα2-6Galβ1-4GlcNAc [BPC-NeuAcLN] | 2 µM and 2.2 µM | 100 | 242 | 0.91 | complete inhibition | – | – | – | – | – | –
CC(=O)NC1C(O)CC(O)(C(=O)O)OC1C(O)C(O)CNC(=O)c1ccc(-c2ccccc2)cc1 [BPC-NeuAc, 5-Acetamido-9-[(1,1′-biphenyl)-4-carboxamido]-3,5,9-trideoxy-D-glycero-D-galacto-2-nonulo-pyranosyl-onate] | 35 µM | 6.3 | 1500 | 0.15 | – | – | – | – | – | – | –
CC(=O)N[C@H]1[C@H](OCCNC(=O)Cc2ccc(O)c([N+](=O)[O-])c2)O[C@H](CO)[C@@H](O[C@@H]2O[C@H](CO[C@]3(C(=O)O)C[C@H](O)[C@@H](NC(C)=O)[C@H]([C@H](O)[C@H](O)CNC(=O)c4ccc(-c5ccccc5)cc4)O3)[C@H](O)[C@H](O)[C@H]2O)[C@@H]1O [NP-BPC, [(4′-hydroxyl-3′-nitrophenylacetamido)-ethyl-β-]-[[5-Acetamido-9-[(1,1′-biphenyl)-4-carboxamido]-3,5,9,trideoxy-D-glycero-D-galacto-2-nonulo-pyranosyl-onate-α2-6-O-D-galactopyranosyl-β1-4]]-D-2-acetamido-2-deoxy-glucopyranoside] | – | – | – | – | – | less than 200 nM | bound efficiently | 0.16 | – | – | –
CC(=O)N[C@H]1[C@H]([C@H](O)[C@H](O)CO)OC(O)(C(=O)O)C[C@@H]1O (stereo partly drawn) [NeuAc, N-acetylneuraminic acid] | > 2000 µM | <0.1 | > 2000 | <0.1 | – | – | – | – | no inhibition | – | –
CC(=O)N[C@@H]1[C@@H](O)[C@H](O[C@@H]2O[C@H](CO[C@]3(C(=O)O)C[C@H](O)[C@@H](NC(C)=O)[C@H]([C@H](O)[C@H](O)CO)O3)[C@H](O)[C@H](O)[C@H]2O)[C@@H](CO)O[C@H]1O [NeuAc-LN, NeuAcα2-6Galβ1-4GlcNAc] | 200 µM and 220 µM | 1 | > 2000 | <0.1 | – | – | – | – | – | – | –
CC(=O)NC1C(O)OC(CO)C(OC2OC(COC3(C(=O)O)CC(O)C(NC(=O)CO)C(C(O)C(O)CO)O3)C(O)C(O)C2O)C1O (stereo not drawn) [NeuGc-LN, NeuGcα2,6Galβ1-4GlcNAc] | 260 µM | 0.85 | 221 | 1 | – | – | – | – | – | binds well | –
C[C@@H]1[C@H](O)[C@@H](C)/C=C/C=C/CC/C=C/C=C/C=C/C=C/C(O[C@H]2O[C@H](C)[C@@H](O)[C@H](N)[C@@H]2O)CC2O[C@](O)(CC(O)C(O)CCC(O)CC(O)CC(O)CC(=O)O[C@H]1C)CC(O)C2C(=O)O (stereo partly drawn) [nystatin] | – | – | – | – | – | – | – | – | – | – | did not inhibit
